Patent US20210338662A1, “ALPHA-2-ADRENOCEPTOR SUBTYPE C (ALPHA-2C) ANTAGONISTS FOR THE TREATMENT OF SLEEP APNEA” (Bayer Aktiengeseilschaft, priority 2018, published 2021)

Tested on: upper airway collapsibility in anaesthetized, spontaneously breathing pigs
Experiment: pig model of obstructive sleep apnea (OSA): upper airway collapsibility under negative pressure
Assay type: in vivo, German Landrace pigs
Settings: i.v. bolus 1.5 mg/kg then i.v. infusion 0.475 mg/kg/h for four hours
Excerpt: The therapeutic potential of the compounds of formula (I) according to the present invention in sleep apnea has been assessed preclinically in a pig model of obstructive sleep apnea (OSA).
Using negative pressure, it is possible to induce collapse and thus obstruction of the upper respiratory tract in anaesthetized, spontaneously breathing pigs (Wirth K. J. et al., Sleep 36(5) (2013) pp. 699-708).
German Landrace pigs are used for the model. The pigs are anaesthetized and tracheotomized. Two tracheal are inserted into the trachea, one into the rostral part and the other into the caudal part of the trachea. Using a connection piece, the rostral cannula is connected to a tube to the negative pressure device and to the distal tracheal cannula. The distal tracheal cannula is additionally connected to a tube with an open end to atmosphere via a connection piece that served for free tracheal breathing, circumventing the upper airway. By appropriate opening and clamping of those tubes breathing can be switched from nasal breathing to breathing through the caudal tracheal cannula, circumventing the upper airway, and the (isolated) upper airway can be connected to the negative pressure device, causing airflow in the inspiratory direction.
At certain points in time, the collapsibility of the upper respiratory tract is tested by having the pig breathe via the caudal cannula and applying negative pressures of −50, −100 and −150 cm water head (cm H2O) to the upper respiratory tract. This causes the upper respiratory tract to collapse, which manifests itself in an interruption of the airflow and a pressure drop in the tube system. This test is conducted prior to the administration of the test substance and at certain intervals after the administration of the test substance. An appropriately effective test substance can prevent this collapse of the respiratory tract in the inspiratory phase.
FIG. 1: Effect of i.v. bolus injection of 1.5 mg/kg followed by an i.v. infusion of 0.475 mg/kg/h for four hours of the α2-Adrenoceptor subtype C (alpha-2C) antagonists of formula (I) ((S)-1-((2,3-dihydrobenzo[b][1,4]dioxin-2-yl)methyl)-4-(3-(methoxymethyl)pyridin-2-yl)piperazine given at time point 0 min on upper airway collapsibility at different levels of negative pressure. Percentages of pigs with no collapse are given. Mean values.

[1] = all negative pressures of −50, −100 and −150 cm
[2] = time 0 min (time point of administration), mean values

For COCc1cccnc1N1CCN(C[C@H]2COc3ccccc3O2)CC1 [(S)-1-((2,3-dihydrobenzo[b][1,4]dioxin-2-yl)methyl)-4-(3-(methoxymethyl)pyridin-2-yl)piperazine], the “duration of inhibition of upper airway collapsibility” value [1] was “up to five”, the “effect on upper airway collapsibility” value [1] was “inhibited upper airway collapsibility” and the “Percent pigs without collaps −50 cm H2O” value [2] was 0%. For the same molecule, the “Percent pigs without collaps −50 cm H2O” value (time 10 min) was 100%, the “Percent pigs without collaps −50 cm H2O” value (time 30 min) was 100% and the “Percent pigs without collaps −50 cm H2O” value (time 60 min) was 100%. For the same molecule, the “Percent pigs without collaps −50 cm H2O” value (time 120 min) was 100%, the “Percent pigs without collaps −50 cm H2O” value (time 180 min) was 100% and the “Percent pigs without collaps −50 cm H2O” value (time 240 min) was 100%. For the same molecule, the “Percent pigs without collaps −50 cm H2O” value (time 300 min) was 100%, the “Percent pigs without collaps −50 cm H2O” value (time 330 min) was 100% and the “Percent pigs without collaps −100 cm H2O” value [2] was 0%. The “Percent pigs without collaps −100 cm H2O” value (time 10 min) was 100%, the “Percent pigs without collaps −100 cm H2O” value (time 30 min) was 100% and the “Percent pigs without collaps −100 cm H2O” value (time 60 min) was 100%. For the same molecule, the “Percent pigs without collaps −100 cm H2O” value (time 120 min) was 100%, the “Percent pigs without collaps −100 cm H2O” value (time 180 min) was 100% and the “Percent pigs without collaps −100 cm H2O” value (time 240 min) was 100%. For the same molecule, the “Percent pigs without collaps −100 cm H2O” value (time 300 min) was 100%, the “Percent pigs without collaps −100 cm H2O” value (time 330 min) was 100% and the “Percent pigs without collaps −150 cm H2O” value [2] was 0%. For the same molecule, the “Percent pigs without collaps −150 cm H2O” value (time 10 min) was 100%, the “Percent pigs without collaps −150 cm H2O” value (time 30 min) was 100% and the “Percent pigs without collaps −150 cm H2O” value (time 60 min) was 100%. For the same molecule, the “Percent pigs without collaps −150 cm H2O” value (time 120 min) was 100%, the “Percent pigs without collaps −150 cm H2O” value (time 180 min) was 100% and the “Percent pigs without collaps −150 cm H2O” value (time 240 min) was 100%. For the same molecule, the “Percent pigs without collaps −150 cm H2O” value (time 300 min) was 100% and the “Percent pigs without collaps −150 cm H2O” value (time 330 min) was 100%.
